These results are taken from ChEMBL document CHEMBL1201862, “PubChem BioAssay data set” (2004).

The structures appear in SMILES notation. Activity calls are given as the source filed them. A value given as a limit tells only on which side of the number the result lay.

Assay [1] has as its target Ras and Rab interactor 1/Tyrosine-protein kinase ABL1 (Homo sapiens, UniProt P00519+Q13671). It counts as functional.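 Also: biochemical TR-FRET dose-response test measuring inhibition of binding between Rin1 and Abl proteins.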
For a further assay, the system named is INS1. Nature of the assay: INS-1E survival protection against cytokine death – cell-based, luminescence, retest, dose response (AID 449756).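 Also: cell death triggered by IL-1 beta plus TNF-alpha plus IFN-gamma mixture; protective hits raise ATP signal compared with cytokine alone wells.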 It counts as functional. The conditions noted are these: Rattus norvegicus.
Assay [2] can be described thus: non-specific 3'UTR reporter inhibition in Clone20-Shn3RL – cell-based, Renilla luciferase, cherry-picked, counter-screen for Shn3 inhibitor project, dose response (AID 624133). Format: functional.
Assay [3] can be described thus: reduction of Shn3 3'UTR-driven luciferase in osteoblasts – cell-based, Clone20 osteoblasts, firefly luciferase, cherry-picked, dose response (AID 624132).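 Also: firefly luciferase luminescence from reporter carrying the Shn3 3'UTR in osteoblasts.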 It counts as functional.
For assay [4], the target named is T1, Carboxy-terminal domain RNA polymerase II polypeptide A small phosphatase 1 (Homo sapiens, UniProt Q9GZU7).
T1 sequence (Q9GZU7 whole entry): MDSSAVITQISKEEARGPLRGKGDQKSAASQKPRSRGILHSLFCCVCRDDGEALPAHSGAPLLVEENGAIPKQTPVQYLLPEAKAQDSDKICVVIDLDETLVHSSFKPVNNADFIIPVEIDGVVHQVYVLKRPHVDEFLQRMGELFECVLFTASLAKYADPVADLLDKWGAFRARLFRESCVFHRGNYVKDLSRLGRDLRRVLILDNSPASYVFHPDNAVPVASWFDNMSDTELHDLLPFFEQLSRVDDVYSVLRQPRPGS
Briefly: CTDSP1 inhibitors, concentration-response, biochemical, absorbance readout, ultra-high-throughput screen actives (AID 540297). Format: functional.

The target in the next assay is T2, Protein RecA (Mycobacterium tuberculosis, UniProt P9WHJ3).
T2 sequence (P9WHJ3 whole entry): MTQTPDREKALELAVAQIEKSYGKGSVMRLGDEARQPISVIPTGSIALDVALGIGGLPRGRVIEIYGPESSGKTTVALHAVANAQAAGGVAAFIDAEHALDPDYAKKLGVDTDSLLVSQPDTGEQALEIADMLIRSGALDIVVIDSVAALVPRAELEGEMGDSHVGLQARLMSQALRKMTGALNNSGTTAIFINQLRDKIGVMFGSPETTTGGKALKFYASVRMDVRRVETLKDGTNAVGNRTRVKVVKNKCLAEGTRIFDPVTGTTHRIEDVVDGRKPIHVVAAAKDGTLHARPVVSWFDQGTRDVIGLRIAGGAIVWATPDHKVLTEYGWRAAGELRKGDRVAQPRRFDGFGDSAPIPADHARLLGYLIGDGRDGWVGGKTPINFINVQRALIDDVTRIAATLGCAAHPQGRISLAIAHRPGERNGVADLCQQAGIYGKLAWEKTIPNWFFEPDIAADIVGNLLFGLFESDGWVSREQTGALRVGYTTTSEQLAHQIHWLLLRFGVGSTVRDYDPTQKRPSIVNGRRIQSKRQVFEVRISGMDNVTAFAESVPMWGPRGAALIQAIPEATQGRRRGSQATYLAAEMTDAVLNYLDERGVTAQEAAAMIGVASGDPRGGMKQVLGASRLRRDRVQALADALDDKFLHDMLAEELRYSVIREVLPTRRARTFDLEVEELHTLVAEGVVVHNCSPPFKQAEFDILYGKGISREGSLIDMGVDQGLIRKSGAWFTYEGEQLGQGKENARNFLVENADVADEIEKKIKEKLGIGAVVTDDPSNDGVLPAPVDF
Nature of the assay: Fluorescence Cell-Free Homogeneous Dose Retest to Identify Inhibitors of RecA-Intein Splicing Activity. [Related pubchem assays (depositor defined):AID2097, AID2223, AID489010, AID492950]. Format: functional.

The target in assay [5] is T3, Replicative DNA helicase DnaB (Mycobacterium tuberculosis, UniProt P9WMR3).
T3 sequence (P9WMR3 whole entry): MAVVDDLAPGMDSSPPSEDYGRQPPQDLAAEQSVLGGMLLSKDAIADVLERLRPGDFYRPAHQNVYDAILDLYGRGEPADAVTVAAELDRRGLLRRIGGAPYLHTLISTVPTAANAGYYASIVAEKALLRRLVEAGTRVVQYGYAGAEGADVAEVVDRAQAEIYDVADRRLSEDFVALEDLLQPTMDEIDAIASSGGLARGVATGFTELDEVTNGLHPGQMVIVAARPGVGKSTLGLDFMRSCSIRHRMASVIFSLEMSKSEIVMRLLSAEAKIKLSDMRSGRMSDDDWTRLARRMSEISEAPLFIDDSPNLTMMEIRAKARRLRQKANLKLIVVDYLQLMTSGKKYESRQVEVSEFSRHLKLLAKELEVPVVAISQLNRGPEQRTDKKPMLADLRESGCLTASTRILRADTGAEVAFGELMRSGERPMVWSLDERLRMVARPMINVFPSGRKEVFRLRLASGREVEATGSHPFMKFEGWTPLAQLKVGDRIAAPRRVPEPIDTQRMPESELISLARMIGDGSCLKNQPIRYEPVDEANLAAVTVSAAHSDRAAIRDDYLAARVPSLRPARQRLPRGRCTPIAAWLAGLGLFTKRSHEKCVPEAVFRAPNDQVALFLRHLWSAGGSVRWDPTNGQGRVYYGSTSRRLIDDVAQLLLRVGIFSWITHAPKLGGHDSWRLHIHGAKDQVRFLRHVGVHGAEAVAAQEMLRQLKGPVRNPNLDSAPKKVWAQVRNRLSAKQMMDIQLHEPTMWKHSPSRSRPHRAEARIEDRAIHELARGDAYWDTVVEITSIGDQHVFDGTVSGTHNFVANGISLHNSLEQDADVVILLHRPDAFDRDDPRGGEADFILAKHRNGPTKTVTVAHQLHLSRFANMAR
Nature of the assay: DnaB intein splicing inhibitors, dose response, biochemical, cell-free fluorescence (AID 449749). Format: functional.

A further assay concerns the target Nonstructural protein 1 (Influenza A virus, UniProt Q194T2). It counts as functional, Influenza A virus (A/California/07/2009(H1N1)).
Assay [6] in a line: NIH3T3 cell viability loss – ATP luminescence, mouse fibroblasts, counter-screen, dose response (AID 2010).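 Also: cells exposed to compound for about 90 hours before reading.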 Format: functional, cell-based. In general terms: Counterscreens check selectivity or assay interference.
The test system of another assay is Streptococcus. Nature of the assay: GAS UMAA2166 growth inhibition – luminescence, BacTiterGlo, counter-screen for streptokinase expression inhibitor project, dose response (AID 1915).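 Also: potency for reduction of bacterial viability or growth.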 Format: functional, organism-based.
The test system of assay [7] is Streptococcus sp. 'group A'. Briefly: Streptococcus pyogenes SK(-)GAS viability under kanamycin – luminescence, BacTiterGlo, confirmation, counter-screen for streptokinase expression inhibitor project, dose response (AID 1900). Format: functional, organism-based.
The next assay addresses T4, Streptokinase A (Streptococcus pyogenes serotype M1, UniProt P10520).
T4 sequence (P10520 whole entry): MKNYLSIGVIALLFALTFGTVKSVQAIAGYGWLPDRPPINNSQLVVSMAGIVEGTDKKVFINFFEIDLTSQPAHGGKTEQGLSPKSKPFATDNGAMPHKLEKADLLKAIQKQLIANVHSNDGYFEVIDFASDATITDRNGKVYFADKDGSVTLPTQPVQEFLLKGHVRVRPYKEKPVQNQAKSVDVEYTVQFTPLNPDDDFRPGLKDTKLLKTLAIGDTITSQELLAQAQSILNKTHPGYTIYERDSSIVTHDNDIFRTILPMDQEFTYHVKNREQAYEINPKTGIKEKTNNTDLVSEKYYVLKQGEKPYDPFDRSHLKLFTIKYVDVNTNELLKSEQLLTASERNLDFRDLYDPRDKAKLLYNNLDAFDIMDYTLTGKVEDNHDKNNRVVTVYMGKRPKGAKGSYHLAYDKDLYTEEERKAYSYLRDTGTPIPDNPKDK
Nature of the assay: viability-normalized secreted streptokinase activity reduction – plasminogen activation absorbance, OD405, dose response (AID 1914).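 Also: secreted streptokinase activity via plasminogen activation per viability signal from cell pellet.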 It counts as functional, Streptococcus pyogenes M1 GAS.

Assay [8] is described as follows: Trypanosoma cruzi growth suppression in host cells – NIH3T3 host cells, beta-gal luminescence, confirmation (AID 2044).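 Also: intracellular parasites grown in NIH/3T3 mouse fibroblasts as host cells; luminescent beta-galactosidase reporter signal from transgenic T. cruzi replicating inside host cells; inhibitors lower the luminescence signal.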 It counts as functional, cell-based.
Assay [9] concerns the target T5, DNA repair protein RAD52 homolog (Homo sapiens, UniProt P43351).
T5 sequence (P43351 whole entry): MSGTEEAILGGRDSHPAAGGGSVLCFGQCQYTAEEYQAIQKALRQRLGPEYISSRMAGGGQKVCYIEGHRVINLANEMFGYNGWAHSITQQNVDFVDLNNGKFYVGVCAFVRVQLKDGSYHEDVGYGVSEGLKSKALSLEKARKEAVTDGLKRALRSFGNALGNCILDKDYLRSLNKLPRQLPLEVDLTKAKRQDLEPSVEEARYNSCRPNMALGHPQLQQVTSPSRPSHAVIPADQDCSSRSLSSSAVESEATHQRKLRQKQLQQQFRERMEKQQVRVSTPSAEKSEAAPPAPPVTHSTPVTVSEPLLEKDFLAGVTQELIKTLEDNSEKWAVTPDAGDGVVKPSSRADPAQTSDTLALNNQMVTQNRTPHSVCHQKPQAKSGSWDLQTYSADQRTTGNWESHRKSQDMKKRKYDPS
Format: functional, biochemical.

A further assay relates to SN12K1. Nature of the assay: cells. It counts as functional. The conditions noted are these: Homo sapiens.
The test system of the next assay is P388/ADR. Briefly: cells. Format: functional. Particulars: Mus musculus.
The nature of assay [10]: intracellular Trypanosoma cruzi inhibitors in host cells – cell-based, plate reader, cherry-pick samples, set 3, dose response (AID 651818).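 Also: compounds incubated with infected cells for about four days.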 Format: functional.
Assay [11] in a line: blockers of HIV-1 ZM109 envelope-driven cell-cell fusion – HeLa effector, CEM target cells, luciferase, cherry-pick, dose response (AID 652058).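 Also: luciferase signal from HIV-1 Env mediated cell-cell fusion of effector and target cells.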 Format: functional, cell-based.
Assay [12] can be described thus: blockers of HIV-1 envelope-mediated cell-cell fusion – cherry-pick, dose response (AID 652057). It counts as functional, cell-based.
A short description of assay [13]: HIV-1 AD8 envelope cell-cell fusion blockers – cherry-pick, dose response (AID 652062).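 Also: luciferase signal from cell-cell fusion driven by HIV-1 clade B AD8 Env; potency is for inhibitors of fusion seen as a drop in luminescence.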 Format: functional, cell-based.

One may read the IC50 as the concentration at which inhibition is half-maximal. The term AC50 denotes the concentration at which the activity in the assay is half-maximal. Broadly, the EC50 is the concentration needed to bring the measured effect to its halfway point. As usually defined, the GI50 is the concentration at which growth is held to half of that of the control.

Sequence of Ras and Rab interactor 1/Tyrosine-protein kinase ABL1 (P00519 whole entry): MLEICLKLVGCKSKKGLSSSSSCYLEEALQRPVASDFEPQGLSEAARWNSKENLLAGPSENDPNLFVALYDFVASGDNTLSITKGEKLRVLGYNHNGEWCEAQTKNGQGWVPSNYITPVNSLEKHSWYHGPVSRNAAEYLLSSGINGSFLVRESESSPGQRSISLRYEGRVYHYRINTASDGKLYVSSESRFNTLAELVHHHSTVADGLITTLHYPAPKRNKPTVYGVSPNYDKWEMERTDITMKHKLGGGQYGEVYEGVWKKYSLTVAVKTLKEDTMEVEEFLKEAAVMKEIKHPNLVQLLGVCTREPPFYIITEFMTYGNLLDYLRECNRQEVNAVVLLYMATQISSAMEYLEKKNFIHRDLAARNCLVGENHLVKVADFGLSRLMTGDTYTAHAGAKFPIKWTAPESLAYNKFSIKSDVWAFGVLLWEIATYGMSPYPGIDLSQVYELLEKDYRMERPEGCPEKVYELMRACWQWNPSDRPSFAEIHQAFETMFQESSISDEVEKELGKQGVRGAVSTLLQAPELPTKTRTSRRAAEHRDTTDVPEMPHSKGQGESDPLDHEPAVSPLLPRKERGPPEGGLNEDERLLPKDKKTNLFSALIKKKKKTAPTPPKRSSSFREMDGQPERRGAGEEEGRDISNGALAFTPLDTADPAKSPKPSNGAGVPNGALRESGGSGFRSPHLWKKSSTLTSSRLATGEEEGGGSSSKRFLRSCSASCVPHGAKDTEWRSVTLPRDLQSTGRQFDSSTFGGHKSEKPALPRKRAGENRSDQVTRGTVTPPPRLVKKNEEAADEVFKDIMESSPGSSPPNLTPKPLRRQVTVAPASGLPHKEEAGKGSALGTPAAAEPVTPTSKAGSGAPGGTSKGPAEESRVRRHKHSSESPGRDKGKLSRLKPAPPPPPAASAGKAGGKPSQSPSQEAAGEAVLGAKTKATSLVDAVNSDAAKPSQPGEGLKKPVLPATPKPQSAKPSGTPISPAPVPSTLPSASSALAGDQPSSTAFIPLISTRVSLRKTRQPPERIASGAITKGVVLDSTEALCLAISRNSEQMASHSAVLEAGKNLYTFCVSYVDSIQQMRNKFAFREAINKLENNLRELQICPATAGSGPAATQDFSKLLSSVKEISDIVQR
Sequence of Ras and Rab interactor 1/Tyrosine-protein kinase ABL1 (Q13671 whole entry): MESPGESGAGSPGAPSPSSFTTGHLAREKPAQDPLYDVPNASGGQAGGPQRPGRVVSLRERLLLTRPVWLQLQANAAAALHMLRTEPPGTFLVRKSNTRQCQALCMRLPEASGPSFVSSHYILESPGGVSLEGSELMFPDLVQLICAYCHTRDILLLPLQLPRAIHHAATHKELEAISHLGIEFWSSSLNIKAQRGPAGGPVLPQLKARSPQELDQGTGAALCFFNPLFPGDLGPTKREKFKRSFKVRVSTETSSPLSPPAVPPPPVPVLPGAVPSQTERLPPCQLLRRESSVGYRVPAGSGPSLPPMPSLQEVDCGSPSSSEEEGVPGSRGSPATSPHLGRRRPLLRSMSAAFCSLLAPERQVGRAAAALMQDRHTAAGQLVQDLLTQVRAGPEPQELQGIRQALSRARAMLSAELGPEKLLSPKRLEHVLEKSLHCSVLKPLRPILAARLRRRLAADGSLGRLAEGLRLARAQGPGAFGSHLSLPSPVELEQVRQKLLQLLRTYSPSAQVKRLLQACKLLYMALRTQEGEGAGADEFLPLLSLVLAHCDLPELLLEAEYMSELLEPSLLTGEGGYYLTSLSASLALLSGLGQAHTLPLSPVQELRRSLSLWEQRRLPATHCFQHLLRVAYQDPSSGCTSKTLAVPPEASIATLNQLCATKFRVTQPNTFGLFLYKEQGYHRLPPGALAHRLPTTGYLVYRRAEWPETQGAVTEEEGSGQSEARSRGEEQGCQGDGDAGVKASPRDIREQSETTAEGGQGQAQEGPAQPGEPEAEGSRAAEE
Sequence of Nonstructural protein 1 (Q194T2 whole entry): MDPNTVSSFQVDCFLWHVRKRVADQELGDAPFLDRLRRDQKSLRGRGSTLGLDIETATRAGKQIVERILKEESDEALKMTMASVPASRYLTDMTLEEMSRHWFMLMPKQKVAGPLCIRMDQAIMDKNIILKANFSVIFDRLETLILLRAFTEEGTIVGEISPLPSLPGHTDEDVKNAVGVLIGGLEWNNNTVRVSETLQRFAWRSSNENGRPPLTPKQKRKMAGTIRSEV

On to `COc1ccc2nc(NC(=O)CCc3nc(C4=CCN(C)CC4)no3)sc2c1`, for which the IC50 in assay [1] was 1.4 µM (active). On the same count and under the same terms, next, `COC(=O)c1c(C)nc(C)c2c(=O)oc3ccccc3c12`: > 73.5 µM (inactive). Turning to `COCCn1c(SCC(=O)/C=C2\N(C)c3ccccc3C2(C)C)nnc1-c1ccncc1`, the AC50 in the assay with INS1 is 6.34 µM (active); in [2], 5.61 µM (active); in [3] it was 2.65 µM (active).

As to `Cc1ccc(Cl)cc1N1CCN(C(=O)CSc2ccsc2[N+](=O)[O-])CC1`, the IC50 in assay [4] was 6.96 µM (active). Still for that read-out and setting: next, `O=C(COC(=O)c1cccc(S(=O)(=O)N2CCN(c3ccccc3)CC2)c1)NCc1ccco1`: 4.41 µM (active). The same measure, in the same setting: next, `CC(=O)Nc1ccc(S(=O)(=O)NC2=NC(=O)/C(=C\c3ccco3)S2)cc1`: 7.44 µM (active). Consider `NC(=O)C(CC(=O)O)NC(=O)[C@@H]1CCCNc2c(I)cc([N+](=O)[O-])cc2C(=O)N[C@@H](CO)C(=O)N[C@@H](Cc2ccc(O)cc2)C(=O)N1` (some centres undefined), for which, in assay [4], the IC50 is 19.7 µM (active). As to `O=C1N(c2cccc(Cl)c2)C(c2ccc(Cl)cc2)N2CCCN12` (centres undefined), the IC50 in [1] was 31.8 µM (inactive). For the molecule `O=C(Cc1ccc(S(=O)(=O)N2CCOCC2)s1)NC1CCCCC1`, in [4], the IC50 was 7.34 µM (active). Consider `CCOC(=O)C1=C(C)n2c(s/c(=C/c3cccc([N+](=O)[O-])c3)c2=O)=NC1c1ccc(O)c(OC)c1` (centres undefined), for which the EC50 is 1.29 µM (active) at Protein RecA; > 60 µM (not active) in assay [6]; > 150 µM (not active) in the assay on Streptococcus; 8.14 µM (active) in assay [7]; 48.8 µM (active) on Streptokinase A; 1.11 µM (active) in [8]. In addition, the AC50 in assay [5] is 13.1 µM (active). In addition, the IC50 at Nonstructural protein 1 was > 100 µM (active).

`O=C1N(c2cccc(Cl)c2)C(c2ccccc2)N2CCCN12` (centres undefined): the IC50 in [1] is 22.2 µM (inactive).

For `COc1ccc(-c2cc(NC=O)c3ncc(-c4cccc(C(=O)NCCN(C)C)c4)n3c2)c(OC)c1`, in [9], the AC50 was 2.55 µM (active). In the case of `CN(CCc1ccccc1)C(=O)c1ccc(NC(=O)Cc2ccc(NC(=O)C3CCN(C(=O)c4ccccc4)CC3)cc2)cc1`, in assay [1], the IC50 was 3.91 µM (active). As for `O=C1C=C[C@@H](COC2OC(CO)C(O)C(O)C2O)O1` (some centres undefined), the GI50 in the assay with SN12K1 was 13.2 µM (inactive); in the assay with P388/ADR, 0.343 µM (active). For `CCN(CC)c1ccc(/C=N/NC(=O)CCCCCCC(=O)Nc2ccccc2O)c(O)c1`, the AC50 in assay [10] was 1.94 µM (active).

For `C[C@@H]1CCCCO[C@@H](CN(C)C(=O)Nc2ccc(C(F)(F)F)cc2)[C@@H](C)CN([C@H](C)CO)C(=O)c2cc(NC(=O)NC3CCCCC3)ccc2O1`, in [10], the AC50 is 5.12 µM (active). The same measure, in the same setting: to `C[C@H](CO)N1C[C@H](C)[C@H](CN(C)C(=O)Nc2ccccc2)Oc2c(NC(=O)c3ccncc3)cccc2C1=O` belongs 2.12 µM (active); to `C[C@H](CO)N1C[C@H](C)[C@H](CN(C)Cc2ccc(-c3ccccc3)cc2)Oc2ccc(NC(=O)CCCCCC(=O)Nc3ccccc3N)cc2CC1=O`, 3.39 µM (active). For the molecule `C[C@H]1CN([C@@H](C)CO)C(=O)Cc2cc(NC(=O)Cc3ccccc3)ccc2O[C@H]1CN(C)S(=O)(=O)c1ccccc1`, the AC50 in assay [11] was 1.6 µM (active); in assay [12], 1.62 µM (active); in assay [13], 7.88 µM (active). For `C[C@H](CO)N1C[C@H](C)[C@H](CN(C)S(=O)(=O)c2ccccc2)Oc2ccc(NC(=O)Cc3cn(C)c4ccccc34)cc2CC1=O`, the figures for the half-maximal activity concentration (AC50) in [11], in assay [12] and in assay [13] were 0.816 µM (active), < 0.26 µM (active) and 12 µM (active), respectively.
